Results from PubChem BioAssay (NCI).
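Growth conditions: 96-well plates. Treatment: test compound, 48 hours, 5 concentrations. Analysis: linear interpolation between bracketing concentrations; unreached endpoints set to highest concentration. At the TGI there is no net growth.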

Tests used:
Test in all cases: DTP human tumour cell line panel, 48 h
HCT-116 colon = tested on: HCT-116 colon
A549 NSCLC = tested on: A549 NSCLC
MOLT-4 leukemia = tested on: MOLT-4 leukemia
CCRF-CEM leukemia = tested on: CCRF-CEM leukemia
MDA-MB-231 breast = tested on: MDA-MB-231 breast
RXF 393 renal = tested on: RXF 393 renal
UACC-62 melanoma = tested on: UACC-62 melanoma
SNB-19 CNS = tested on: SNB-19 CNS
CAKI-1 renal = tested on: CAKI-1 renal
BT-549 breast = tested on: BT-549 breast
OVCAR-3 ovarian = tested on: OVCAR-3 ovarian
SK-MEL-5 melanoma = tested on: SK-MEL-5 melanoma
SN12C renal = tested on: SN12C renal
SK-MEL-2 melanoma = tested on: SK-MEL-2 melanoma
PC-3 prostate = tested on: PC-3 prostate
NCI/ADR-RES ovarian = tested on: NCI/ADR-RES ovarian
SNB-75 CNS = tested on: SNB-75 CNS
OVCAR-8 ovarian = tested on: OVCAR-8 ovarian
EKVX NSCLC = tested on: EKVX NSCLC
HOP-62 NSCLC = tested on: HOP-62 NSCLC
NCI-H522 lung = tested on: NCI-H522 lung
SF-539 CNS = tested on: SF-539 CNS
MDA-MB-435 = tested on: MDA-MB-435
OVCAR-5 ovarian = tested on: OVCAR-5 ovarian
IGROV1 ovarian = tested on: IGROV1 ovarian
COLO 205 colon = tested on: COLO 205 colon
SK-MEL-28 melanoma = tested on: SK-MEL-28 melanoma
NCI-H226 lung = tested on: NCI-H226 lung
MCF7 breast = tested on: MCF7 breast
A498 renal = tested on: A498 renal
U251 CNS = tested on: U251 CNS
SF-295 CNS = tested on: SF-295 CNS
M14 melanoma = tested on: M14 melanoma
SW-620 colon = tested on: SW-620 colon
HCT-15 colon = tested on: HCT-15 colon
HCC-2998 colon = tested on: HCC-2998 colon
T-47D breast = tested on: T-47D breast
RPMI-8226 leukemia = tested on: RPMI-8226 leukemia
ACHN renal = tested on: ACHN renal
HT29 colon = tested on: HT29 colon
SK-OV-3 ovarian = tested on: SK-OV-3 ovarian
K-562 leukemia = tested on: K-562 leukemia
SF-268 CNS = tested on: SF-268 CNS
OVCAR-4 ovarian = tested on: OVCAR-4 ovarian
786-0 renal = tested on: 786-0 renal
KM12 colon = tested on: KM12 colon
HS 578T breast = tested on: HS 578T breast
UO-31 renal = tested on: UO-31 renal
DU-145 prostate = tested on: DU-145 prostate
HOP-92 NSCLC = tested on: HOP-92 NSCLC
NCI-H23 lung = tested on: NCI-H23 lung
UACC-257 melanoma = tested on: UACC-257 melanoma
TK-10 renal = tested on: TK-10 renal
LOX IMVI melanoma = tested on: LOX IMVI melanoma
MALME-3M melanoma = tested on: MALME-3M melanoma
HL-60(TB) leukemia = tested on: HL-60(TB) leukemia
NCI-H460 lung = tested on: NCI-H460 lung

## COC(=O)CCCC(=O)C1=Nc2ccccc2CN(c2ccc(Cl)cc2)N1
HCT-116 colon
  TGI: > 100 µM
A549 NSCLC
  TGI: > 100 µM
MOLT-4 leukemia
  TGI: > 100 µM
CCRF-CEM leukemia
  TGI: > 100 µM
MDA-MB-231 breast
  TGI: > 100 µM
RXF 393 renal
  TGI: > 100 µM
UACC-62 melanoma
  TGI: > 100 µM
SNB-19 CNS
  TGI: > 100 µM
CAKI-1 renal
  TGI: > 100 µM
BT-549 breast
  TGI: > 100 µM
OVCAR-3 ovarian
  TGI: > 100 µM
SK-MEL-5 melanoma
  TGI: > 100 µM
SN12C renal
  TGI: > 100 µM
SK-MEL-2 melanoma
  TGI: > 100 µM
PC-3 prostate
  TGI: > 100 µM
NCI/ADR-RES ovarian
  TGI: > 100 µM
SNB-75 CNS
  TGI: > 100 µM
OVCAR-8 ovarian
  TGI: > 100 µM
EKVX NSCLC
  TGI: > 100 µM
HOP-62 NSCLC
  TGI: > 100 µM
NCI-H522 lung
  TGI: > 100 µM
SF-539 CNS
  TGI: > 100 µM
MDA-MB-435
  TGI: > 100 µM
OVCAR-5 ovarian
  TGI: > 100 µM
IGROV1 ovarian
  TGI: > 100 µM
COLO 205 colon
  TGI: > 100 µM
SK-MEL-28 melanoma
  TGI: > 100 µM
NCI-H226 lung
  TGI: > 100 µM
MCF7 breast
  TGI: > 100 µM
A498 renal
  TGI: > 100 µM
U251 CNS
  TGI: > 100 µM
SF-295 CNS
  TGI: > 100 µM
M14 melanoma
  TGI: > 100 µM
SW-620 colon
  TGI: > 100 µM
HCT-15 colon
  TGI: > 100 µM
HCC-2998 colon
  TGI: > 100 µM
T-47D breast
  TGI: 49.5 µM
RPMI-8226 leukemia
  TGI: > 100 µM
ACHN renal
  TGI: > 100 µM
HT29 colon
  TGI: > 100 µM
SK-OV-3 ovarian
  TGI: > 100 µM
K-562 leukemia
  TGI: > 100 µM
SF-268 CNS
  TGI: > 100 µM
OVCAR-4 ovarian
  TGI: 87.7 µM
786-0 renal
  TGI: > 100 µM
KM12 colon
  TGI: > 100 µM
HS 578T breast
  TGI: > 100 µM
UO-31 renal
  TGI: > 100 µM
DU-145 prostate
  TGI: > 100 µM
HOP-92 NSCLC
  TGI: > 100 µM
NCI-H23 lung
  TGI: > 100 µM
UACC-257 melanoma
  TGI: > 100 µM
TK-10 renal
  TGI: > 100 µM
LOX IMVI melanoma
  TGI: > 100 µM

## NC(N)=Nc1ccc(CC(N)C(=O)NCC(=O)C(CC(=O)O)c2ncc(NC(=O)C(F)(F)F)o2)cc1 (stereo unspecified)
HCT-116 colon
  TGI: > 25 µM
A549 NSCLC
  TGI: > 25 µM
CCRF-CEM leukemia
  TGI: > 25 µM
MDA-MB-231 breast
  TGI: > 25 µM
RXF 393 renal
  TGI: > 25 µM
UACC-62 melanoma
  TGI: > 25 µM
CAKI-1 renal
  TGI: > 25 µM
BT-549 breast
  TGI: > 25 µM
OVCAR-3 ovarian
  TGI: > 25 µM
SK-MEL-5 melanoma
  TGI: > 25 µM
SN12C renal
  TGI: > 25 µM
SK-MEL-2 melanoma
  TGI: > 25 µM
MALME-3M melanoma
  TGI: > 25 µM
PC-3 prostate
  TGI: > 25 µM
HL-60(TB) leukemia
  TGI: > 25 µM
NCI/ADR-RES ovarian
  TGI: > 25 µM
SNB-75 CNS
  TGI: > 25 µM
OVCAR-8 ovarian
  TGI: > 25 µM
EKVX NSCLC
  TGI: > 25 µM
HOP-62 NSCLC
  TGI: > 25 µM
NCI-H522 lung
  TGI: > 25 µM
SF-539 CNS
  TGI: > 25 µM
MDA-MB-435
  TGI: > 25 µM
OVCAR-5 ovarian
  TGI: > 25 µM
IGROV1 ovarian
  TGI: > 25 µM
COLO 205 colon
  TGI: > 25 µM
SK-MEL-28 melanoma
  TGI: > 25 µM
NCI-H226 lung
  TGI: > 25 µM
MCF7 breast
  TGI: > 25 µM
A498 renal
  TGI: > 25 µM
U251 CNS
  TGI: > 25 µM
SF-295 CNS
  TGI: > 25 µM
M14 melanoma
  TGI: > 25 µM
SW-620 colon
  TGI: > 25 µM
NCI-H460 lung
  TGI: > 25 µM
HCT-15 colon
  TGI: > 25 µM
HCC-2998 colon
  TGI: > 25 µM
T-47D breast
  TGI: > 25 µM
RPMI-8226 leukemia
  TGI: > 25 µM
ACHN renal
  TGI: > 25 µM
HT29 colon
  TGI: > 25 µM
SK-OV-3 ovarian
  TGI: > 25 µM
SF-268 CNS
  TGI: > 25 µM
OVCAR-4 ovarian
  TGI: > 25 µM
786-0 renal
  TGI: > 25 µM
KM12 colon
  TGI: > 25 µM
HS 578T breast
  TGI: > 25 µM
UO-31 renal
  TGI: > 25 µM
DU-145 prostate
  TGI: > 25 µM
NCI-H23 lung
  TGI: > 25 µM
UACC-257 melanoma
  TGI: > 25 µM
TK-10 renal
  TGI: > 25 µM
LOX IMVI melanoma
  TGI: > 25 µM

## CCCOc1ccc2sc(NC(=O)c3cc([N+](=O)[O-])cc([N+](=O)[O-])c3)nc2c1
HCT-116 colon
  TGI: 89.7 µM
A549 NSCLC
  TGI: > 100 µM
MOLT-4 leukemia
  TGI: > 100 µM
CCRF-CEM leukemia
  TGI: > 100 µM
MDA-MB-231 breast
  TGI: > 100 µM
RXF 393 renal
  TGI: > 100 µM
UACC-62 melanoma
  TGI: > 100 µM
SNB-19 CNS
  TGI: > 100 µM
CAKI-1 renal
  TGI: > 100 µM
BT-549 breast
  TGI: > 100 µM
OVCAR-3 ovarian
  TGI: 68.3 µM
SK-MEL-5 melanoma
  TGI: 48.8 µM
SN12C renal
  TGI: > 100 µM
SK-MEL-2 melanoma
  TGI: > 100 µM
MALME-3M melanoma
  TGI: 79.3 µM
PC-3 prostate
  TGI: > 100 µM
HL-60(TB) leukemia
  TGI: > 100 µM
NCI/ADR-RES ovarian
  TGI: 61.5 µM
SNB-75 CNS
  TGI: 83.1 µM
OVCAR-8 ovarian
  TGI: > 100 µM
EKVX NSCLC
  TGI: > 100 µM
HOP-62 NSCLC
  TGI: > 100 µM
SF-539 CNS
  TGI: > 100 µM
MDA-MB-435
  TGI: > 100 µM
OVCAR-5 ovarian
  TGI: > 100 µM
IGROV1 ovarian
  TGI: 35.7 µM
COLO 205 colon
  TGI: > 100 µM
SK-MEL-28 melanoma
  TGI: > 100 µM
NCI-H226 lung
  TGI: > 100 µM
MCF7 breast
  TGI: > 100 µM
A498 renal
  TGI: 76.9 µM
U251 CNS
  TGI: > 100 µM
SF-295 CNS
  TGI: > 100 µM
M14 melanoma
  TGI: > 100 µM
SW-620 colon
  TGI: > 100 µM
NCI-H460 lung
  TGI: > 100 µM
HCT-15 colon
  TGI: > 100 µM
T-47D breast
  TGI: > 100 µM
RPMI-8226 leukemia
  TGI: > 100 µM
ACHN renal
  TGI: > 100 µM
HT29 colon
  TGI: > 100 µM
SK-OV-3 ovarian
  TGI: > 100 µM
K-562 leukemia
  TGI: > 100 µM
SF-268 CNS
  TGI: > 100 µM
OVCAR-4 ovarian
  TGI: 58.8 µM
786-0 renal
  TGI: > 100 µM
KM12 colon
  TGI: > 100 µM
HS 578T breast
  TGI: 39.4 µM
UO-31 renal
  TGI: 57.7 µM
DU-145 prostate
  TGI: > 100 µM
HOP-92 NSCLC
  TGI: 49.6 µM
NCI-H23 lung
  TGI: 82.3 µM
TK-10 renal
  TGI: > 100 µM
LOX IMVI melanoma
  TGI: 68.3 µM
